Source: ChEMBL document CHEMBL6092206, “Discovery and Characterization of BAY-184: A New Potent and Selective Acylsulfonamide-Benzofuran In Vivo-Active KAT6AB Inhibitor” (J Med Chem, 2024)
The source made the active and inactive calls. No cut-off for these calls is given here.

Legend:
MFM-223 = assay: Antiproliferative activity against human MFM-223 cells assessed as inhibition of cell growth incubated for 6 days by alamar blue staining based assay relative to control; type: functional; settings: time 6 day
[1] = Metabolic stability in mouse liver microsome assessed as maximum bioavailability of the drug measured for 2 to 60 mins by LC-MS/MS analysis; type: ADME; settings: liver microsomes, time 2-60 min, read-out: Fmax
[2] = Plasma protein binding in rat assessed as unbound fraction equilibrium dialysis based LC-MS/MS analysis; type: ADME, cell-free
[3] = Stability in rat plasma assessed as parent compound remaining after 4 hrs; type: ADME, cell-free
[4] = Metabolic stability in mouse liver microsome assessed as clearance measured for 2 to 60 mins by LC-MS/MS analysis; type: ADME; settings: microsomes, time 2-60 min
[5] = molecular target: Histone acetyltransferase KAT5 (Homo sapiens, UniProt Q92993); assay: Inhibition of full length N-terminal GST-tagged human recombinant KAT5 expressed in Sf9 insect cells using H4-derived peptide as substrate incubated for 30 mins in presence of AcCoA by TR-FRET assay
[6] = molecular target: Voltage-gated inwardly rectifying potassium channel KCNH2 (Homo sapiens, UniProt Q12809); assay: Inhibition of hERG; type: toxicity
[7] = Oral bioavailability in male Wistar rat at 1 mg/kg measured upto 24 hrs by LC-MS/S analysis; type: ADME, organism-based; settings: in vivo
[8] = AUC in male Wistar rat at 1 mg/kg, po measured upto 24 hrs by LC-MS/S analysis; type: ADME, organism-based; settings: in vivo
[9] = Tmax in male Wistar rat at 1 mg/kg, po measured upto 24 hrs by LC-MS/S analysis; type: ADME, organism-based; settings: in vivo
[10] = Metabolic stability in dog liver microsome assessed as clearance measured for 2 to 60 mins by LC-MS/MS analysis; type: ADME, Canis lupus familiaris; settings: microsomes, time 2-60 min
[11] = Mutagenicity in Escherichia coli WP2 uvrA by Ames test; type: toxicity
MCF7 = assay: Antiproliferative activity against human MCF7 cells assessed as inhibition of cell growth incubated for 6 days by alamar blue staining based assay relative to control; type: functional; settings: time 6 day
[12] = Apparent permeability across apical to basolateral side in human Caco-2 cells at 2 uM pH 7.2 measured for 2 hrs by LC-MS/MS analysis; type: ADME, cell-based; settings: caco-2, pH 7.2, 2 h, 2 µM
[13] = Metabolic stability in human hepatocyte assessed as maximum bioavailability of the drug measured for 2 to 90 mins by LC-MS/MS analysis; type: ADME; settings: hepatocytes, time 2-90 min, read-out: Fmax
[14] = molecular target: Histone acetyltransferase KAT7 (Homo sapiens, UniProt O95251); assay: Inhibition of full length N-terminal GST-tagged human recombinant KAT7 expressed in Sf9 insect cells using H4-derived peptide as substrate incubated for 30 mins in presence of AcCoA by TR-FRET assay
[15] = Mutagenicity in Salmonella typhimurium TA1535 by Ames test; type: toxicity; settings: salmonella enterica subsp. enterica serovar typhimurium
[16] = Metabolic stability in mouse hepatocyte assessed as clearance measured for 2 to 90 mins by LC-MS/MS analysis; type: ADME, cell-based; settings: hepatocytes, time 2-90 min
[17] = molecular target: Histone acetyltransferase KAT6A (Homo sapiens, UniProt Q92794); assay: Inhibition of KAT6A in human ZR-75-1 cells assessed as reduction in H3K23ac level at 1 uM measured after 144 hrs by Western blot analysis; type: cell-based
[18] = Antiproliferative activity against human KPL-1 cells assessed as inhibition of cell growth incubated for 6 days by alamar blue staining based assay relative to control; type: functional; settings: time 6 day
[19] = Plasma protein binding in mouse assessed as unbound fraction equilibrium dialysis based LC-MS/MS analysis; type: ADME, cell-free
[20] = AUC in male Wistar rat at 0.5 mg/kg, iv measured upto 24 hrs by LC-MS/S analysis; type: ADME, organism-based; settings: in vivo
[21] = Metabolic stability in mouse hepatocyte assessed as maximum bioavailability of the drug measured for 2 to 90 mins by LC-MS/MS analysis; type: ADME; settings: hepatocytes, time 2-90 min, read-out: Fmax
ZR-75-1 = assay: Antitumor activity against human ZR-75-1 cells xenografted in po dosed female estradiol-primed NMRI mouse assessed as inhibition of tumor growth administered twice daily measured at 2 to 3 days; type: functional, organism-based; settings: time 2-3 day
[22] = Metabolic stability in human liver microsome assessed as clearance measured for 2 to 60 mins by LC-MS/MS analysis; type: ADME; settings: microsomes, time 2-60 min
[23] = Metabolic stability in human liver microsome assessed as maximum bioavailability of the drug measured for 2 to 60 mins by LC-MS/MS analysis; type: ADME; settings: liver microsomes, time 2-60 min, read-out: Fmax
[24] = Metabolic stability in human hepatocyte assessed as clearance measured for 2 to 90 mins by LC-MS/MS analysis; type: ADME, cell-based; settings: hepatocytes, time 2-90 min
[25] = Clearance in male Wistar rat at 0.5 mg/kg, iv or 1 mg/kg, po measured upto 24 hrs by LC-MS/S analysis; type: ADME, organism-based; settings: in vivo
[26] = Clearance in mouse at 0.5 mg/kg, iv; type: ADME, organism-based; settings: in vivo
[27] = Stability of compound in HCL buffer at pH 1 measured for 24 hrs by HPLC analysis; type: physicochemical; settings: pH 1, 24 h

Chain of Histone acetyltransferase KAT7 (O95251 whole entry): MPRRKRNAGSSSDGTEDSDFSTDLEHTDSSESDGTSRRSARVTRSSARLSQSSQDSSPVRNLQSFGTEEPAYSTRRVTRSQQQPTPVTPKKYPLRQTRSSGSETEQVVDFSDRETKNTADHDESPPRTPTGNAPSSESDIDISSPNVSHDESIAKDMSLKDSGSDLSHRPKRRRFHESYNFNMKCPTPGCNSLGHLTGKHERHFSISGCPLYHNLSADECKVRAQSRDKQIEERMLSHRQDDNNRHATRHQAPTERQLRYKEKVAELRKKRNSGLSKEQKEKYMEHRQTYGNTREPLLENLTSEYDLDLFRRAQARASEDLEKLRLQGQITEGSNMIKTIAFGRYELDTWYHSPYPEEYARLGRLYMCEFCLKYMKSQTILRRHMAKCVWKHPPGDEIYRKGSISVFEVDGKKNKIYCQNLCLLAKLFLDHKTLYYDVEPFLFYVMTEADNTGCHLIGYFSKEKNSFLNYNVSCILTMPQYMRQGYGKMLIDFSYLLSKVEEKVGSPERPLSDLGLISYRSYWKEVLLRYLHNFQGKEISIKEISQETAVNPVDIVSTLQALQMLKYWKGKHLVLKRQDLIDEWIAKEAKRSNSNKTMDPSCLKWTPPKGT
Chain of Histone acetyltransferase KAT5 (Q92993 whole entry): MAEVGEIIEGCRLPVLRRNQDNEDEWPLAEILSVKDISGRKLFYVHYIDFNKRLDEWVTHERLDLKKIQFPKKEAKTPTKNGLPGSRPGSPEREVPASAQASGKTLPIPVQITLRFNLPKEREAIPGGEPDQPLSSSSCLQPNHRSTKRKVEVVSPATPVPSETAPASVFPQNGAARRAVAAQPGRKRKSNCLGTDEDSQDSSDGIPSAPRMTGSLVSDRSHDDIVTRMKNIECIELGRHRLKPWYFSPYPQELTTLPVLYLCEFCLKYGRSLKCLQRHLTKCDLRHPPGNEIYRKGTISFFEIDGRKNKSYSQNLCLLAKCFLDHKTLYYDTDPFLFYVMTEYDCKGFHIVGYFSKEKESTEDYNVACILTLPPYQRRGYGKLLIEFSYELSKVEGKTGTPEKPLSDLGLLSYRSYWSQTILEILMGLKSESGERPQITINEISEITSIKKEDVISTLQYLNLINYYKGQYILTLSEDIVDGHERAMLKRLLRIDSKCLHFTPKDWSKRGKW
Chain of Voltage-gated inwardly rectifying potassium channel KCNH2 (Q12809 whole entry): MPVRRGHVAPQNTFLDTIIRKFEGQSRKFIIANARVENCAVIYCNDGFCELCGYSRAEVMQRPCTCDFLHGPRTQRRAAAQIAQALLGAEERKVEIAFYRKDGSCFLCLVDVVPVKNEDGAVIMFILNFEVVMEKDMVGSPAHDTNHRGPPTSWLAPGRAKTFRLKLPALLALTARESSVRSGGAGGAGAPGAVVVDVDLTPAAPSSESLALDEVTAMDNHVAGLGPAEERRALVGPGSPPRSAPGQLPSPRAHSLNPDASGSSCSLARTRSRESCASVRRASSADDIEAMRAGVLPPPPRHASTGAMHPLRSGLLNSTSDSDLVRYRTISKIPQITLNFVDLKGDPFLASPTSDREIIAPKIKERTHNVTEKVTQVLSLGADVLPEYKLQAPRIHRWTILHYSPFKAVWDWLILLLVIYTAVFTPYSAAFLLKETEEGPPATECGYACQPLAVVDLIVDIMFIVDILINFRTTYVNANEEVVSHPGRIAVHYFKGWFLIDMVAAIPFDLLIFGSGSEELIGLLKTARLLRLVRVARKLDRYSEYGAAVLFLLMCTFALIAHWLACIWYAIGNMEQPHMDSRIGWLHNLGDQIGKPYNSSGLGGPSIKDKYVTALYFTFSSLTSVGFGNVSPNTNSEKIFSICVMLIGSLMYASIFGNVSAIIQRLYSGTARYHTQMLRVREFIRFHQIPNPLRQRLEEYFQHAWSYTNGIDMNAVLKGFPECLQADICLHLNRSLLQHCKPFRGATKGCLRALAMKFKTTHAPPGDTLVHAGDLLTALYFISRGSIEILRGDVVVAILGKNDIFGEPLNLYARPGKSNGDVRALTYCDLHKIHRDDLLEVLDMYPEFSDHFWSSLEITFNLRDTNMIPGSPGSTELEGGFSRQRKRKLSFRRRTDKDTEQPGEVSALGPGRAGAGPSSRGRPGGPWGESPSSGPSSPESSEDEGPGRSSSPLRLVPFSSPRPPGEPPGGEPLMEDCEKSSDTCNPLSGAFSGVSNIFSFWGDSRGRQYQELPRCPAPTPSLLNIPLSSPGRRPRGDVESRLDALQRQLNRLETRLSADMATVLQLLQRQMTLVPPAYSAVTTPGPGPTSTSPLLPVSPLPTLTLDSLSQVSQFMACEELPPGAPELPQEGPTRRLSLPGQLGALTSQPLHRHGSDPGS
Chain of Histone acetyltransferase KAT6A (Q92794 whole entry, looked up): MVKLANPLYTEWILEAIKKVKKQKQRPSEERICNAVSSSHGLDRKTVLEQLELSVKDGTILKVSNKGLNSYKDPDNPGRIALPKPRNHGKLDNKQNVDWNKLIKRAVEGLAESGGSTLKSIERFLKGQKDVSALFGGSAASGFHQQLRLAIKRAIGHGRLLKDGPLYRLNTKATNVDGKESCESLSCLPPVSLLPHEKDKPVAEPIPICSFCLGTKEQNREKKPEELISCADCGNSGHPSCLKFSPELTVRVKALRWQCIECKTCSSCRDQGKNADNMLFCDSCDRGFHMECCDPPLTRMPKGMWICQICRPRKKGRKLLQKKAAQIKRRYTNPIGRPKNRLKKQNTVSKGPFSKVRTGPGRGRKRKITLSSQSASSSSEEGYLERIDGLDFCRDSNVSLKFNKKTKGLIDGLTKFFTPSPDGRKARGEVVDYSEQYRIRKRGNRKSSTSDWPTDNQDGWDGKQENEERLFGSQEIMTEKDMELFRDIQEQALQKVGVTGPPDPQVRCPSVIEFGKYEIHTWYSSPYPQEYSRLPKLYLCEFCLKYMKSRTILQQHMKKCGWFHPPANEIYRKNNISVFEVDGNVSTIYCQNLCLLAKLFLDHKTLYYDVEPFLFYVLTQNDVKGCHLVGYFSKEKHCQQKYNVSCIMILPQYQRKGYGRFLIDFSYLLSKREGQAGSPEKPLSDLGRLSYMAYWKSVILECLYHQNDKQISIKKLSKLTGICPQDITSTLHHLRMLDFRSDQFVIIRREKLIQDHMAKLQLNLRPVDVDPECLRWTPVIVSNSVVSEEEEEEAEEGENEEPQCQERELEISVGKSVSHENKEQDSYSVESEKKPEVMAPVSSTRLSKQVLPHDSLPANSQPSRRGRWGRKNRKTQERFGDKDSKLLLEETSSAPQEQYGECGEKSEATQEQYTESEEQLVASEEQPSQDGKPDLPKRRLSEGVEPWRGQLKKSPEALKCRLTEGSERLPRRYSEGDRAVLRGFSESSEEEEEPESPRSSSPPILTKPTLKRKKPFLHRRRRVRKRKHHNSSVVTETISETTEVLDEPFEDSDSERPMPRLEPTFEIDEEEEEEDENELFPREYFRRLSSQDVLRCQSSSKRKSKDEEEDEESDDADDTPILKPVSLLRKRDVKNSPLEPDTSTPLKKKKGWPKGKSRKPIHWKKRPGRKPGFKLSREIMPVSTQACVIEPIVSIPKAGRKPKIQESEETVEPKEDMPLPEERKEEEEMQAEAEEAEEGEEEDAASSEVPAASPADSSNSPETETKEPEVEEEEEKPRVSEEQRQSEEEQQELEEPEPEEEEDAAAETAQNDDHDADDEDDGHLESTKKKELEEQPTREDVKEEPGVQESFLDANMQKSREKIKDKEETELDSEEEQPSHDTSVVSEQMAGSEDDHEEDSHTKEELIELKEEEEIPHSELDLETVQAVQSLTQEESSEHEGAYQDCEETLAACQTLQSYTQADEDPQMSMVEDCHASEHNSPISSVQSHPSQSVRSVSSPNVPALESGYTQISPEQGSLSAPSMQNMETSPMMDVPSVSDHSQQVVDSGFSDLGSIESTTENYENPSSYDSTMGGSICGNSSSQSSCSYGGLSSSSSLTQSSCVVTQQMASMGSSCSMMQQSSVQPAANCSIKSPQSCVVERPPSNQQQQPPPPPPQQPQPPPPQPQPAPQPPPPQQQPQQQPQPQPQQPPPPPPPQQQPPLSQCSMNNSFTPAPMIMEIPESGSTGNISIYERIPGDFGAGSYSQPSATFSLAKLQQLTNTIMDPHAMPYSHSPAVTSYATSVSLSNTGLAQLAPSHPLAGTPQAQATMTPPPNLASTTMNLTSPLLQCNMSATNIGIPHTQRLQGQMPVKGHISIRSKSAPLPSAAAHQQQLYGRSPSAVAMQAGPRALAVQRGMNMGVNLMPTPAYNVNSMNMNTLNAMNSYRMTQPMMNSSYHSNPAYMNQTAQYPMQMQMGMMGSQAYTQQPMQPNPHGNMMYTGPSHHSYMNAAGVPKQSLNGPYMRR

SMILES: CN(C)c1ccc2cc(C(=O)NS(=O)(=O)c3ccccc3-c3ccccc3)oc2c1
- inhibition (INH) (MFM-223): 61%
- Fh [1]: 29%
- Fu [2]: 0.048%
- Stability [3]: Stable
- CLH [4]: 63.3 mL/min/kg
- IC50 [5]: 14.3 µM
- inhibition (INH) [6]: Not_active
- bioavailability [7]: 60%
- AUC [8]: 3.3 kg·h/L
- Tmax [9]: 30 min
- CLH [10]: 6.83 mL/min/kg
- Activity [11]: Non-toxic
- inhibition (INH) (MCF7): 66%
- Papp [12]: 14.6 ×10⁻⁶ cm/s
- Fh [13]: 25%
- IC50 [14]: 1.07 µM
- Activity [15]: Non-toxic
- CLH [16]: 60 mL/min/kg
- inhibition [17]: inactive
- inhibition (INH) [18]: 30%
- Fu [19]: 0.31%
- AUC [20]: 5.5 kg·h/L
- Fh [21]: 33%
- Activity (ZR-75-1): Dose-dependent-effect
- CLH [22]: 12.8 mL/min/kg
- Fh [23]: 41%
- CLH [24]: 16.5 mL/min/kg
- clearance [25]: 5.67 mL/min/kg
- clearance [26]: 9.33 mL/min/kg
- Stability [27]: Stable
